Measured values reported in BigSolDB 2.1.

Nc1nc2ccc(OC(F)(F)F)cc2s1
solubility (mole fraction)
Conditions | 278.15 K | 283.15 K | 288.15 K | 293.15 K | 298.15 K | 303.15 K | 308.15 K | 313.15 K | 318.15 K | 323.15 K
in 2-methoxyethanol | 0.383 | 0.398 | 0.405 | 0.419 | 0.428 | 0.436 | 0.449 | 0.459 | 0.469 | 0.478
in 2-propoxyethanol | 0.449 | 0.461 | 0.469 | 0.485 | 0.496 | 0.504 | 0.514 | 0.521 | 0.53 | 0.538
in DMAc | 0.0878 | 0.0968 | 0.106 | 0.116 | 0.129 | 0.142 | 0.156 | 0.17 | 0.188 | 0.203
in acetone | 0.371 | 0.379 | 0.387 | 0.401 | 0.414 | 0.425 | 0.437 | 0.449 | 0.464 | 0.477
in acetonitrile | 0.156 | 0.176 | 0.197 | 0.216 | 0.245 | 0.267 | 0.302 | 0.336 | 0.365 | 0.387
in ethanol | 0.179 | 0.188 | 0.198 | 0.212 | 0.222 | 0.236 | 0.254 | 0.273 | 0.294 | 0.308
in isopropyl acetate | 0.331 | 0.341 | 0.351 | 0.361 | 0.376 | 0.386 | 0.395 | 0.411 | 0.43 | 0.443
in n-butanol | 0.185 | 0.197 | 0.207 | 0.221 | 0.236 | 0.254 | 0.268 | 0.288 | 0.313 | 0.337
in n-pentanol | 0.197 | 0.205 | 0.216 | 0.231 | 0.249 | 0.264 | 0.281 | 0.303 | 0.325 | 0.342
in n-pentyl acetate | 0.348 | 0.356 | 0.365 | 0.374 | 0.385 | 0.395 | 0.408 | 0.425 | 0.439 | 0.46
in n-propanol | 0.179 | 0.189 | 0.202 | 0.215 | 0.23 | 0.249 | 0.267 | 0.287 | 0.312 | 0.333
in n-propyl acetate | 0.349 | 0.36 | 0.368 | 0.377 | 0.389 | 0.398 | 0.414 | 0.429 | 0.446 | 0.463
